# Assay results taken from publication PMC6222509, “Dibasic Derivatives of Phenylcarbamic Acid against Mycobacterial Strains: Old Drugs and New Tricks?” (Molecules : A Journal of Synthetic Chemistry and Natural …, 2018).
# Read-outs that look alike come from different tables or passages of the source.
# Columns and labels:
# [1] = test system: M. kansasii CNCTC My 235/80 (identical with ATCC 12478; MK 235/80); assay: in vitro antimycobacterial MIC, dilution micromethod in Šula's semisynthetic medium; assay type: cell-based, Mycobacterium kansasii; details: Mycobacterium kansasii
# [2] = lipophilicity by isocratic RP-HPLC (log k, k, log kw, S); assay type: physicochemical; details: for log kw: extrapolated to 100% water from log k versus ϕM; for S (slope): slope of log k versus ϕM regression
# Text: Octadecyl-functionalized silica gel was currently used as a stationary phase (SPh) and a […] of two solvents at different volume ratios modified retention properties of the SPh. Liquid binary mixtures of methanol (MeOH) with water were employed as mobile phases (MPhs) in the isocratic RP-HPLC. The MeOH modifier was preferred because of similarity of both observed and extrapolated lipophilicity parameters with the ones determined in the octan-1-ol/water partition system, considering also sensitivity to H-bond donor properties of investigated compounds [41].
# The modifier was applied in different volume concentrations, which varied from […] (v/v) with 5% increments. This interval was chosen due to very high lipophilicity of investigated salts. Practically, lower volume concentration of MeOH, i.e., less than 85% (v/v) in used MPhs, caused uncertainty of retention times (tr) due to notable peaks broadening, especially within subsets 1i–l and 1m–p. […] The highest tr parameters were found for the molecules 1k (tr = 47.108 min) and 1l (tr = 70.012 min) in the MPh containing 85% proportion (v/v) of MeOH (Table 2).
# According to the authors’ opinions based on systematic scientific literature survey, a current research paper was the first, which aimed the log kw parameters of 2-/3-alkoxyphenylcarbamic acid derivatives containing two centers of protonation. The log kw values were extrapolated from intercepts of a relationship between log k and volume fraction of the MPh modifier (ϕM) using the Snyder–Soczewiński linear solvent strength model. The relationship was justified by R > 0.9900, Adj. R^2 > 0.9750 as well as F > 180.00 for calculation of particular log kw parameters (Table 3).
# The HPLC separation module Waters e2695 equipped with a Waters 2996 PDA Detector (Waters Corp., Milford, MA, USA) and chromatographic column Symmetry C18 × 5 μm, 4.6 × 250 mm, Part No. W21751W016 (Waters Corp.) were used for estimation of lipophilic properties of the compounds 1a–p at 21 °C.
# Isocratic elution was carried out using mobile phases consisting of methanol p.a. (MeOH; Honeywell, Paris, France) and purified water in various volume ratios (80:20, 85:15, 90:10, 95:5 (v/v) and pure MeOH, respectively). Distilled water (CentralChem, Bratislava, Slovak Republic) was purified by the Aquinity2 P10 ultra-pure water system for production of ultra-pure water with an integrated 10 L permeate tank (membraPure, Hennigsdorf, Germany).
# Total flow of the column was 1.0 mL/min, injection volume was 4 μL and column temperature was set to 40 °C. The detection wavelengths varying from 236 nm to 238 nm were chosen for current experimental procedures.
# Lipophilicity of the compounds 1a–p was determined by reversed-phase high-performance liquid chromatography (RP-HPLC). Methanol (MeOH)/water mobile phases with varying volume ratio of the organic modifier and water (80:20, 85:15, 90:10, 95:5 (v/v) and pure MeOH, respectively) were chosen.
# A methanolic solution of potassium iodine was used for dead time (td) determination. Retention factors (capacity factors; k) were calculated according to Equation (17):k = (tr− td)/td(17) where tr was retention time of a solute (in min), the td parameter denoted dead time of potassium iodine, an unretained analyte (in min).
# The observed retention (tr) and dead (td) times were means of three independent determinations. Average td values of potassium iodine in used MPhs were as follows: 2.237 min (MeOH/water ratio (v/v) was 80:20), 2.245 min (85:15), 2.245 min (90:10), 2.228 min (95:5) and 2.210 min (pure MeOH), respectively. […]
# [3] = ATCC12478, 168 h, 7-day cultivation, read-out: MIC MK 235/80 7-d
# [4] = ATCC12478, 336 h, 14-day cultivation, read-out: MIC MK 235/80 14-d
# [5] = ATCC12478, 504 h, 21-day cultivation, read-out: MIC MK 235/80 21-d
# [6] = mobile phase MeOH/water 80:20 (v/v)
# [7] = mobile phase MeOH/water 85:15 (v/v)
# [8] = mobile phase MeOH/water 90:10 (v/v)
# [9] = mobile phase MeOH/water 95:5 (v/v)
# [10] = ATCC12478, 168 h, read-out: MIC MK 235/80 7-d
# [11] = ATCC12478, 336 h, read-out: MIC MK 235/80 14-d
# [12] = ATCC12478, 504 h, read-out: MIC MK 235/80 21-d
Compound,"MIC [1, 3]","MIC [1, 4]","MIC [1, 5]",log kw [2],"k (retention factor) [2, 6]","log k [2, 6]","k (retention factor) [2, 7]","log k [2, 7]","k (retention factor) [2, 8]","log k [2, 8]","k (retention factor) [2, 9]","log k [2, 9]",k (retention factor) ([2]; mobile phase pure MeOH),log k ([2]; mobile phase pure MeOH),S (slope) [2],"MIC [1, 10]","MIC [1, 11]","MIC [1, 12]","MIC ([1]; ATCC12478, read-out: MIC MK 235/80)"
CCCCOc1ccccc1NC(=O)OC(CN(CCC)CCC)CN1CCCC1 (stereo not shown) [1a],62.5 µM,62.5 µM,62.5 µM,3.7688,5.2060,0.7165,3.7636,0.5756,2.4877,0.3958,1.5878,0.2008,0.9114,−0.0403,3.7768,,,,
CCCCCCOc1cccc(NC(=O)OC(CN(CCC)CCC)CN2CCCC2)c1 (stereo not shown) [1g],16 µM,16 µM,16 µM,4.9446,6.6896,0.8254,4.0776,0.6104,2.3329,0.3679,1.3128,0.1182,0.6213,−0.2067,5.1128,,,,
CCCCCCOc1ccccc1NC(=O)OC(CN(CCC)CCC)CN1CCCC1 (stereo not shown) [1c],32 µM,32 µM,32 µM,4.6049,10.4858,1.0206,6.5494,0.8162,4.0300,0.6053,2.3351,0.3683,1.3449,0.1287,4.4634,,,,
"CCCCCCCOc1cccc(NC(=O)OC(CN(CCC)CCC)CN2CCCC2)c1.Cl.Cl (stereo not shown) [1h, 1-[2-[({[3-(heptyloxy)phenyl]amino}carbonyl)oxy]-3-(dipropylammonio)propyl]pyrrolidinium dichloride]",,,,5.5384,8.9557,0.9521,5.1988,0.7159,2.8609,0.4565,1.6188,0.2092,0.6091,−0.2153,5.6830,8 µM,8 µM,8 µM,8 µM
"CCCCCCOc1cccc(NC(=O)OC(CN(CCC)CCC)CN2CCCCCC2)c1.Cl.Cl (stereo not shown) [1o, 1-[2-[({[3-(hexyloxy)phenyl]amino}-carbonyl)oxy]-3-(dipropylammonio)propyl]azepanium dichloride]",,,,5.6569,12.0420,1.0807,5.0804,0.7059,3.2915,0.5174,1.2868,0.1095,0.8674,−0.0618,5.7628,8 µM,16 µM,16 µM,
